# PubChem BioAssay AID1918949 (Molecular Pharmacology Branch, DTP, NCI, 2023)
# Several values for one entry are separate records, joined by “and”; a condition that tells them apart may be missing. Equal entries are not always repeated.
# Test system: K24384-001-R-PDC complex spheroid viability
# Assay: Anticancer human tumor K24384-001-R-PDC patient-derived pancreatic adenocarcinoma cell line growth inhibition
# Details: for viability, T/C: stronger effect = lower value
# Method in brief: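 Drug combinations with the LSD1 inhibitor iadademstat tested on tumor cells co-cultured as spheroids with endothelial cells and mesenchymal stem cells. Concentrations descended in half-log increments from clinical Cmax or 10 microM.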
# [1] = curve of first compound, second compound 0.1 µM
# [2] = curve of first compound, second compound 0.316 µM
# [3] = curve of first compound, second compound 1 µM
# [4] = curve of first compound, second compound 3.16 µM
# [5] = curve of first compound, second compound 10 µM
# 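Note: spheroids exposed to agents for seven days before luminescence viability reading.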
# 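Throughout, for viability, T/C: 100% = DMSO vehicle control viability.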
smiles,measurement,setting,value
Cn1ncnc1C1c2n[nH]c(=O)c3cc(F)cc(c23)NC1c1ccc(F)cc1 (stereo unspecified) + NC1CCC(NC2CC2c2ccccc2)CC1,IC50,[1],> 100 nM
same,IC50,[2],> 100 nM
same,IC50,[3],> 100 nM
same,IC50,[4],> 100 nM
same,IC50,[5],> 100 nM
same,"viability, T/C","second compound 0.1 µM, first compound 0.000316 µM",92.4%
same,"viability, T/C","second compound 0.1 µM, first compound 0.001 µM",115%
same,"viability, T/C","second compound 0.1 µM, first compound 0.00316 µM",81.7%
same,"viability, T/C","second compound 0.1 µM, first compound 0.01 µM",88.6%
same,"viability, T/C","second compound 0.1 µM, first compound 0.0316 µM",80%
same,"viability, T/C","second compound 0.1 µM, first compound 0.1 µM",73.7%
same,"viability, T/C","second compound 0.316 µM, first compound 0.000316 µM",96.5%
same,"viability, T/C","second compound 0.316 µM, first compound 0.001 µM",92.8%
same,"viability, T/C","second compound 0.316 µM, first compound 0.00316 µM",104%
same,"viability, T/C","second compound 0.316 µM, first compound 0.01 µM",93.5%
same,"viability, T/C","second compound 0.316 µM, first compound 0.0316 µM",104%
same,"viability, T/C","second compound 0.316 µM, first compound 0.1 µM",72.4%
same,"viability, T/C","second compound 1 µM, first compound 0.000316 µM",104%
same,"viability, T/C","second compound 1 µM, first compound 0.001 µM",100%
same,"viability, T/C","second compound 1 µM, first compound 0.00316 µM",89.5%
same,"viability, T/C","second compound 1 µM, first compound 0.01 µM",88.7%
same,"viability, T/C","second compound 1 µM, first compound 0.0316 µM",84.8%
same,"viability, T/C","second compound 1 µM, first compound 0.1 µM",70.2%
same,"viability, T/C","second compound 3.16 µM, first compound 0.000316 µM",92.9%
same,"viability, T/C","second compound 3.16 µM, first compound 0.001 µM",95.2%
same,"viability, T/C","second compound 3.16 µM, first compound 0.00316 µM",94.6%
same,"viability, T/C","second compound 3.16 µM, first compound 0.01 µM",98.5%
same,"viability, T/C","second compound 3.16 µM, first compound 0.0316 µM",98.6%
same,"viability, T/C","second compound 3.16 µM, first compound 0.1 µM",82.1%
same,"viability, T/C","second compound 10 µM, first compound 0.000316 µM",85.6%
same,"viability, T/C","second compound 10 µM, first compound 0.001 µM",105%
same,"viability, T/C","second compound 10 µM, first compound 0.00316 µM",94.7%
same,"viability, T/C","second compound 10 µM, first compound 0.01 µM",103%
same,"viability, T/C","second compound 10 µM, first compound 0.0316 µM",83.1%
same,"viability, T/C","second compound 10 µM, first compound 0.1 µM",91.6%
O=C(c1cc(Cc2n[nH]c(=O)c3ccccc23)ccc1F)N1CCN(C(=O)C2CC2)CC1,"viability, T/C",compound 0.0316 µM,104% and 94.8%
same,"viability, T/C",compound 0.1 µM,97.3% and 91.9%
same,"viability, T/C",compound 0.316 µM,91% and 88.9%
same,"viability, T/C",compound 1 µM,85.5% and 81.4%
same,"viability, T/C",compound 3.16 µM,82.9% and 67.7%
same,"viability, T/C",compound 10 µM,84.4% and 70.1%
same,IC50,curve of compound,> 10000 nM
Cn1ncnc1C1c2n[nH]c(=O)c3cc(F)cc(c23)NC1c1ccc(F)cc1 (stereo unspecified),"viability, T/C",compound 0.000316 µM,108% and 99.6%
same,"viability, T/C",compound 0.001 µM,105% and 115%
same,"viability, T/C",compound 0.00316 µM,87.1% and 102%
same,"viability, T/C",compound 0.01 µM,93.5% and 95%
same,"viability, T/C",compound 0.0316 µM,90.6% and 95.1%
same,"viability, T/C",compound 0.1 µM,80.4% and 76.9%
same,IC50,curve of compound,> 100 nM
NS(=O)(=O)OCC1CC(n2ccc3c(NC4CCc5ccccc54)ncnc32)CC1O (stereo unspecified),"viability, T/C",compound 0.00949 µM,98.5% and 116%
same,"viability, T/C",compound 0.03 µM,123% and 143%
same,"viability, T/C",compound 0.0949 µM,109% and 126%
same,"viability, T/C",compound 0.3 µM,52.2% and 53.9%
same,"viability, T/C",compound 0.949 µM,34.3% and 34.6%
same,"viability, T/C",compound 3 µM,19.9% and 22.4%
same,IC50,curve of compound,338 nM and 362 nM
O=C(C=Cc1cccc(S(=O)(=O)Nc2ccccc2)c1)NO + NC1CCC(NC2CC2c2ccccc2)CC1,IC50,[1],262 nM
same,IC50,[2],239 nM
same,IC50,[3],241 nM
same,IC50,[4],266 nM
same,IC50,[5],192 nM
same,"viability, T/C","second compound 0.1 µM, first compound 0.00949 µM",109%
same,"viability, T/C","second compound 0.1 µM, first compound 0.03 µM",112%
same,"viability, T/C","second compound 0.1 µM, first compound 0.0949 µM",116%
same,"viability, T/C","second compound 0.1 µM, first compound 0.3 µM",41.7%
same,"viability, T/C","second compound 0.1 µM, first compound 0.949 µM",3.48%
same,"viability, T/C","second compound 0.1 µM, first compound 3 µM",0.14%
same,"viability, T/C","second compound 0.316 µM, first compound 0.00949 µM",131%
same,"viability, T/C","second compound 0.316 µM, first compound 0.03 µM",107%
same,"viability, T/C","second compound 0.316 µM, first compound 0.0949 µM",95.1%
same,"viability, T/C","second compound 0.316 µM, first compound 0.3 µM",39.4%
same,"viability, T/C","second compound 0.316 µM, first compound 0.949 µM",4.3%
same,"viability, T/C","second compound 0.316 µM, first compound 3 µM",0.15%
same,"viability, T/C","second compound 1 µM, first compound 0.00949 µM",90.3%
same,"viability, T/C","second compound 1 µM, first compound 0.03 µM",121%
same,"viability, T/C","second compound 1 µM, first compound 0.0949 µM",95.8%
same,"viability, T/C","second compound 1 µM, first compound 0.3 µM",39.1%
same,"viability, T/C","second compound 1 µM, first compound 0.949 µM",4.13%
same,"viability, T/C","second compound 1 µM, first compound 3 µM",0.15%
same,"viability, T/C","second compound 3.16 µM, first compound 0.00949 µM",109%
same,"viability, T/C","second compound 3.16 µM, first compound 0.03 µM",129%
same,"viability, T/C","second compound 3.16 µM, first compound 0.0949 µM",113%
same,"viability, T/C","second compound 3.16 µM, first compound 0.3 µM",42.5%
same,"viability, T/C","second compound 3.16 µM, first compound 0.949 µM",4.22%
same,"viability, T/C","second compound 3.16 µM, first compound 3 µM",0.16%
same,"viability, T/C","second compound 10 µM, first compound 0.00949 µM",107%
same,"viability, T/C","second compound 10 µM, first compound 0.03 µM",118%
same,"viability, T/C","second compound 10 µM, first compound 0.0949 µM",73%
same,"viability, T/C","second compound 10 µM, first compound 0.3 µM",35.7%
same,"viability, T/C","second compound 10 µM, first compound 0.949 µM",3.52%
same,"viability, T/C","second compound 10 µM, first compound 3 µM",0.24%
